Among the data in patent publication US20260042747A1, “KIT INHIBITORS, COMPOUNDS, PHARMACEUTICAL COMPOSITIONS, AND METHODS OF USE THEREOF” (Alivexis, Inc., priority 2022, published 2026) are IC50 values, retold here.

Experiment [1] addresses recombinant human KIT tyrosine kinase protein (Homo sapiens (Human), UniProt P10721). In words: KIT tyrosine kinase assay (ADP-Glo). The format is biochemical. The method, then:
An in vitro assay utilizing the recombinant human KIT tyrosine kinase protein was developed to measure compound inhibition of KIT. KIT tyrosine kinase activity was measured by the ADP-Glo Kinase Assay system with poly […]) peptide substrate. Kinase Assay was performed in white 384-well plates and the luminescence was measured by Victor X5 Multilabel Counter (Perkin Elmer). Recombinant intracellular domain of human KIT protein was purchased from Carna Biosciences (Kobe, Japan). Poly […]) peptide was purchased from Sigma-Aldrich (St. Louis, Missouri, USA). ADP-Glo Kinase Assay reagent was purchased from Promega (Madison, Wisconsin, USA). Each test compound was dissolved in 100% DMSO to prepare 10 mM stock solutions. […] After the preincubation, 3 μL of substrate/ATP mixture was added and incubated for 1 hour at room temperature. The tyrosine phosphorylation by KIT kinase was quantified by ADP-Glo kinase assay kit following the manufacturer's protocol. Briefly, the phosphorylation reaction was terminated by adding 10 μL ADP-Glo reagent and incubated for 60 minutes at room temperature. 20 μL of Kinase Detection Reagent was added to each well and luminescence was measured by plate reader. […] Half maximal inhibitory concentration (IC50) was calculated by a Four […] Logistic Regression model using GraphPad Prism (GraphPad Software). The value without recombinant KIT protein and without test compound was used as a negative control (assay background).

For experiment [2], the system named is M-07e cells. In words: SCF-dependent M-07e cell proliferation assay. The settings on record: read-out: M-07e IC50. The format is cell-based, human. On the procedure: SCF-dependent cell proliferation assay was developed to measure the inhibitory potency of the compounds in M-07e cells, which express wild-type human KIT protein. The assay was performed in 96-well plates and the IC50 of each KIT inhibitor was determined by CellTiter Glo Assay reagent and Victor X5 Multilabel Counter (Perkin Elmer).
M-07e cells were purchased from AcceGen Biotechnology. Cells were maintained with M-07e Growth medium: RPMI-1640 containing 20% FBS, 100 U/mL penicillin and 100 microgram/mL streptomycin, 10 ng/mL rhGM-CSF, 10 ng/mL rhSCF. M-07e cells were seeded at a density of 5000 cells/90 μL/well in 96-well plates. Test compounds were dissolved in 100% DMSO to make 20 mM stock solution and serially diluted 1:3 with 100% DMSO to make an 11-point dilution series with concen-trations from […] to 0.024 μM. The serially diluted compounds were then each diluted 1:50 with culture medium to obtain assay compound solutions containing 2% DMSO. Ten μL of assay compound solutions were added to the 90 μL of culture cell suspension in the 96-well plate, with a final DMSO concentration of 0.2%. The plates were then incubated in a 5% CO2 incubator at 37° C. for 3 days. To obtain Day Zero Controls for background calculation, cells were seeded at 5000 cells/100 μL in a new 96-well plate and processed on the same day. Both Day Zero controls and 3 day culture plates were then treated as follows. 100 μL of CellTiter Glo Assay reagent was added to each well and the plate was incubated at room temperature for 15 min on a shaker at 200-300 RPM. Then 100 μL of cell lysate samples were transferred to white wall 96-well plates and luminescence was measured by a plate reader. The luminescence of Day Zero Control was subtracted from the luminescence intensity of 3 day culture readings. The assay control for this experiment was cells treated with 0.2% DMSO in culture medium and wells with 100 μL of culture medium (0.2% DMSO without cells) were used as the blank for data analysis.
The IC50 value of each compound was determined by using % inhibition by nor-malizing inhibition in DMSO treated control wells to 0% using the following formula method: […]
Plot percent inhibition in proliferation of triplicates against the respective concen-trations of compound and fit the dose response curve using the sigmoidal dose response equation to generate the IC50 in GraphPad Prism 8 software.

Where [3] appears, read: Homo sapiens, M-07e, 72 h, SCF-dependent M-07e cell proliferation, 3 days, CellTiter Glo.
Setting [4] is: SCF-dependent M-07e cell proliferation, 3 days, CellTiter Glo.

Where a name gives a salt, the structure may show the parent alone. Read-outs that look alike come from different tables or passages of the source.

Chain of recombinant human KIT tyrosine kinase protein (P10721 546-976): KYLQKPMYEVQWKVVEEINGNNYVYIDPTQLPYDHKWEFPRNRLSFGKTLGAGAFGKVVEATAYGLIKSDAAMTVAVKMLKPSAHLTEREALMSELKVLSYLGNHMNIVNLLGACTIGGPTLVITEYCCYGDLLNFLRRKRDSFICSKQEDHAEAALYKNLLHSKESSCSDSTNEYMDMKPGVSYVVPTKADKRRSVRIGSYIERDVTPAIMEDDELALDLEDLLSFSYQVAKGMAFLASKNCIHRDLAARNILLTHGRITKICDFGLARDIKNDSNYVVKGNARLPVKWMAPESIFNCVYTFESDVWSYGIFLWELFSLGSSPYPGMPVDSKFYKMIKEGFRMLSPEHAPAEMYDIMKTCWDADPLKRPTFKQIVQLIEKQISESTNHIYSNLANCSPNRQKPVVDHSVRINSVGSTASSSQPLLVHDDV

On to `CC(C)N(C)c1ccc(CNC(=O)c2cc3[nH]c(=O)[nH]c3cc2F)cn1` [Example 136], for which the IC50 turned out to be 27 nM in experiment [1] (Table 99) and 209 nM in experiment [2] (setting [3]).

Consider `CC(c1ccccc1)N(C)c1ccc(CNC(=O)c2ccc3c(c2)[nH]c(=O)n3C)cn1` (single isomer, unassigned) [82 Peak 1], for which the IC50 in experiment [1] (Table 98) came to 180 nM; in experiment [2] (setting [4]), 6300 nM.

`CN(c1cnc(CNC(=O)c2cc3[nH]c(=O)[nH]c3cc2F)cn1)C1CCC(F)(F)C1` (stereo not drawn) [Example 138]: the IC50 was 35 nM in experiment [1] (Table 99) and 4570 nM in experiment [2] (Homo sapiens, M-07e, 72 h).

In the case of `CN(c1ccc(CNC(=O)c2ccc3c(c2)[nH]c(=O)n3C)cn1)[C@@H]1CCC(F)(F)C1` [Example 122], the half-maximal inhibitory concentration (IC50) was determined as 32 nM in experiment [1] (Table 99) and 14 nM in experiment [2] (Homo sapiens, M-07e, 72 h).

As to `CN(c1ccc(CNC(=O)c2ccc3c(c2)[nH]c(=O)n3C)cn1)[C@H]1CCC(F)(F)C1` [Example 105, (S)—N-((6-((3,3-Difluorocyclopentyl)(methyl)amino)pyridin-3-yl)methyl)-1-methyl-2-o xo-2,3-dihydro-1H-benzimidazole-5-carboxamide], the results for the half-maximal inhibitory concentration (IC50) in experiment [1] (Table 99) and in experiment [2] (setting [3]) were 21 nM and 13 nM, respectively.

In the case of `CN(CC1CCC(F)(F)CC1)c1ncc(CNC(=O)c2ccc3c(c2)[nH]c(=O)n3C)s1` [Example 92], the IC50 in experiment [1] (Table 98) amounted to 59 nM; in experiment [2] (Homo sapiens, M-07e, 72 h), 1900 nM.

Consider `Cn1c(=O)[nH]c2cc(C(=O)NCc3ccc(N(C)[C@H]4C[C@@H](C(F)(F)F)C4)nc3)ccc21` [Compound 12, 1-Methyl-N-((6-(methyl(cis-3-(trifluoromethyl)cyclobutyl)amino)pyridin-3-yl)methyl)-2-oxo-2,3-dihydro-1H-benzimidazole-5-carboxamide], for which the IC50 in experiment [1] (Table 98) was 36 nM; in experiment [2] (setting [3]), 38 nM.

Consider `Cn1c(=O)[nH]c2cc(C(=O)NCc3cnc4c(ccn4-c4ccccc4)c3)ccc21` [Compound 20, 1-Methyl-2-oxo-N-((1-phenyl-1H-pyrrolo[2,3-b]pyridin-5-yl)methyl)-2,3-dihydro-1H-benzimidazole-5-carboxamide], for which the figures for the half-inhibitory concentration (IC50) in experiment [1] (Table 98) and in experiment [2] (setting [3]) were 38 nM and 400 nM, respectively.

For `CC(NC(=O)c1ccc2c(c1)[nH]c(=O)n2C)c1ccc(Oc2ccc(F)cc2)nc1` (single isomer, unassigned) [Compound 6 Peak 1, N-(1-(6-(4-Fluorophenoxy)pyridin-3-yl)ethyl)-1-methyl-2-oxo-2,3-dihydro-1H-benzimid azole-5-carboxamide], the IC50 in experiment [2] (setting [3]) was found to be 680 nM.

Turning to `CN(c1ccc(CNC(=O)c2cc(F)c3[nH]c(=O)[nH]c3c2)cn1)C1CCC(F)(F)CC1` [Example 143], the results for the concentration for half-maximal inhibition (IC50) in experiment [1] (Table 99) and in experiment [2] (setting [3]) were 35 nM and 1460 nM, respectively.

On to `C[C@@H]1CCCN1c1ccc(CNC(=O)c2ccc3c(c2)[nH]c(=O)n3C)cn1` [Example 99], for which the IC50 was 50 nM in experiment [1] (Table 98) and 540 nM in experiment [2] (Homo sapiens, M-07e, 72 h).

As to `CN(c1ccc(CNC(=O)c2cc3[nH]c(=O)[nH]c3cc2F)cn1)C1CCC(F)(F)CC1` [Example 135], the IC50 in experiment [1] (Table 99) was found to be 30 nM; in experiment [2] (setting [3]) it was 589 nM.

In the case of `CC(C)N1CCc2cc(CNC(=O)c3ccc4c(c3)[nH]c(=O)n4C)cnc21` [Compound 17, N-((1-Isopropyl-2,3-dihydro-1H-pyrrolo[2,3-b]pyridin-5-yl)methyl)-1-methyl-2-oxo-2,3-dihydro-1H-benzimidazole-5-carboxamide], the IC50 in experiment [1] (Table 98) was 22 nM; in experiment [2] (setting [3]) it was 390 nM.

In the case of `CN(c1ccc(CNC(=O)c2ccc3c(c2)[nH]c(=O)n3C)cn1)C12CC(C)(C1)C2` [Example 78], the IC50 in experiment [1] (Table 98) stood at 26 nM; in experiment [2] (Homo sapiens, M-07e, 72 h), 150 nM.

With `CN(c1ccc(CNC(=O)c2ccc3c(c2)[nH]c(=O)n3C)cn1)[C@H]1CC[C@@H](F)C1` [Example 110, N-((6-(((1S,3R)-3-Fluorocyclopentyl)(methyl)amino)pyridin-3-yl)methyl)-1-methyl-2-ox o-2,3-dihydro-1H-benzimidazole-5-carboxamide], the values for the IC50 in experiment [1] (Table 99) and in experiment [2] (setting [3]) were 33 nM and 55 nM, respectively.

Regarding `CN(c1ccc(CNC(=O)c2cc3[nH]c(=O)[nH]c3cc2F)cn1)C1CCC(F)(F)C1` (stereo not drawn) [Example 140], the IC50 in experiment [1] (Table 99) turned out to be 18 nM; in experiment [2] (setting [3]), 99 nM.

Consider `CN(c1ccc(CNC(=O)c2ccc3[nH]c(=O)[nH]c3c2)cn1)C1CCC(F)(F)CC1` [Example 128], for which, in experiment [2] (setting [3]), the IC50 amounted to 2830 nM.

In the case of `CN(CC1CC(F)(F)C1)c1ccc(CNC(=O)c2ccc3c(c2)[nH]c(=O)n3C)cn1` [Example 68], the 50% inhibitory concentration (IC50) in experiment [1] (Table 98) turned out to be 42 nM; in experiment [2] (Homo sapiens, M-07e, 72 h), 130 nM.

With `CCC(C)N(C)c1ccc(CNC(=O)c2ccc3c(c2)[nH]c(=O)n3C)cn1` (stereo not drawn) [Example 84], the IC50 in experiment [1] (Table 98) stood at 16 nM; in experiment [2] (Homo sapiens, M-07e, 72 h), 180 nM.

On to `Cn1c(=O)[nH]c2cc(C(=O)NCc3ccc(Oc4ccc(F)cc4F)nc3)ccc21` [Compound 4, N-((6-(2,4-Difluorophenoxy)pyridin-3-yl)methyl)-1-methyl-2-oxo-2,3-dihydro-1H-benzi midazole-5-carboxamide], for which the results for the concentration for half-maximal inhibition (IC50) in experiment [1] (Table 98) and in experiment [2] (setting [3]) were 21 nM and 380 nM, respectively.

As for `Cn1c(=O)[nH]c2cc(C(=O)NCc3cnc4c(ccn4-c4ccccc4F)c3)ccc21` [Example 100], the IC50 in experiment [1] (Table 98) was found to be 53 nM; in experiment [2] (Homo sapiens, M-07e, 72 h), 250 nM.

`CN(c1ccc(CNC(=O)c2cc3[nH]c(=O)n(C)c3cc2F)cn1)C1CCC(F)(F)CC1` [Example 115, N-((6-((4,4-Difluorocyclohexyl)(methyl)amino)pyridin-3-yl)methyl)-6-fluoro-1-methyl-2-oxo-2,3-dihydro-1H-benzimidazole-5-carboxamide]: the values for the half-inhibitory concentration (IC50) in experiment [1] (Table 99) and in experiment [2] (setting [3]) were 21 nM and 70 nM, respectively.

In the case of `CN(c1ccc(CNC(=O)c2ccc3c(c2)[nH]c(=O)n3C)cn1)C1CC(OC(F)F)C1` (single isomer, unassigned) [106 Isomer I, N-((6-((3-(Difluoromethoxy)cyclobutyl)(methyl)amino)pyridin-3-yl)methyl)-1-methyl-2-oxo-2,3-dihydro-1H-benzimidazole-5-carboxamide], the 50% inhibitory concentration (IC50) stood at 36 nM in experiment [1] (Table 99) and 15 nM in experiment [2] (setting [4]).

As for `CN(c1ccc(CNC(=O)c2ccc3c(c2)[nH]c(=O)n3C)cn1)C1CC(F)(F)C1` [Example 65], the IC50 came out at 35 nM in experiment [1] (Table 98) and 270 nM in experiment [2] (Homo sapiens, M-07e, 72 h).

As to `CN(CC1CCOCC1)c1ccc(CNC(=O)c2ccc3c(c2)[nH]c(=O)n3C)cn1` [Example 72], the IC50 in experiment [1] (Table 98) came to 84 nM; in experiment [2] (Homo sapiens, M-07e, 72 h), 800 nM.

Take `CN(c1ccc(CNC(=O)c2ccc3c(c2)[nH]c(=O)n3C)cn1)C1CCC(F)(F)CC1` [Compound 10, N-((6-((4,4-Difluorocyclohexyl)(methyl)amino)pyridin-3-yl)methyl)-1-methyl-2-oxo-2,3-dihydro-1H-benzimidazole-5-carboxamide]: the IC50 in experiment [2] (setting [3]) turned out to be 240 nM.

For `Cn1c(=O)[nH]c2cc(C(=O)NCc3cnc4c(c3)ncn4-c3c(F)cccc3F)ccc21` [Compound 21, N-((3-(2,6-Difluorophenyl)-3H-imidazo[4,5-b]pyridin-6-yl)methyl)-1-methyl-2-oxo-2,3-dihydro-1H-benzimidazole-5-carboxamide trifluoroacetate], the half-maximal inhibitory concentration (IC50) in experiment [1] (Table 98) is 660 nM.

`CC(CO)N(C)c1ccc(CNC(=O)c2ccc3c(c2)[nH]c(=O)n3C)cn1` (stereo not drawn) [Example 133]: the IC50 in experiment [1] (Table 99) came out at 75 nM.

In the case of `CCN(CC)c1ccc(CNC(=O)c2ccc3c(c2)[nH]c(=O)n3C)cn1` [Example 85], in experiment [1] (Table 98), the IC50 amounted to 150 nM.

Consider `C[C@H](NC(=O)c1ccc2c(c1)[nH]c(=O)n2C)c1ccc(N(C)c2ccccc2F)nc1` [Example 88], for which the half-maximal inhibitory concentration (IC50) in experiment [1] (Table 98) turned out to be 98 nM.

As to `CC(NC(=O)c1ccc2c(c1)[nH]c(=O)n2C)c1ccc(Oc2cccc(F)c2F)nc1` (stereo not drawn) [Example 53], the IC50 in experiment [1] (Table 98) was 79 nM.
